What is called IC50 is the midpoint of a concentration-inhibition curve.

The experiment deals with TARP γ8 dependent AMPA receptor (GRIA1o-CACNG8 fusion construct) (Homo sapiens (Human), UniProt P42261+Q8WXS5). The experiment can be described thus: Calcium flux assay (FLIPR), inhibition of glutamate response of GluA1o-γ8 channel. Format: cell-based. The conditions noted are these: HEK293 cells stably expressing GRIA1o-CACNG8 fusion; calcium flux after 15 μM glutamate; negative log of the IC50 in molar. The method in brief: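 HEK293 clonal line stably expressing a GRIA1o-CACNG8 fusion (1:1 GluA1o:γ8), loaded with Calcium-5/6 dye plus compound in HEPES buffer pH 7.4. FLIPR calcium flux read after 15 μM glutamate; normalized to no-compound and 10 μM CP465022 controls. Four-parameter logistic fit gives IC50, reported as pIC50.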
TARP γ8 dependent AMPA receptor (GRIA1o-CACNG8 fusion construct), sequence (P42261 other isoform, or with tags, fused parts or gaps): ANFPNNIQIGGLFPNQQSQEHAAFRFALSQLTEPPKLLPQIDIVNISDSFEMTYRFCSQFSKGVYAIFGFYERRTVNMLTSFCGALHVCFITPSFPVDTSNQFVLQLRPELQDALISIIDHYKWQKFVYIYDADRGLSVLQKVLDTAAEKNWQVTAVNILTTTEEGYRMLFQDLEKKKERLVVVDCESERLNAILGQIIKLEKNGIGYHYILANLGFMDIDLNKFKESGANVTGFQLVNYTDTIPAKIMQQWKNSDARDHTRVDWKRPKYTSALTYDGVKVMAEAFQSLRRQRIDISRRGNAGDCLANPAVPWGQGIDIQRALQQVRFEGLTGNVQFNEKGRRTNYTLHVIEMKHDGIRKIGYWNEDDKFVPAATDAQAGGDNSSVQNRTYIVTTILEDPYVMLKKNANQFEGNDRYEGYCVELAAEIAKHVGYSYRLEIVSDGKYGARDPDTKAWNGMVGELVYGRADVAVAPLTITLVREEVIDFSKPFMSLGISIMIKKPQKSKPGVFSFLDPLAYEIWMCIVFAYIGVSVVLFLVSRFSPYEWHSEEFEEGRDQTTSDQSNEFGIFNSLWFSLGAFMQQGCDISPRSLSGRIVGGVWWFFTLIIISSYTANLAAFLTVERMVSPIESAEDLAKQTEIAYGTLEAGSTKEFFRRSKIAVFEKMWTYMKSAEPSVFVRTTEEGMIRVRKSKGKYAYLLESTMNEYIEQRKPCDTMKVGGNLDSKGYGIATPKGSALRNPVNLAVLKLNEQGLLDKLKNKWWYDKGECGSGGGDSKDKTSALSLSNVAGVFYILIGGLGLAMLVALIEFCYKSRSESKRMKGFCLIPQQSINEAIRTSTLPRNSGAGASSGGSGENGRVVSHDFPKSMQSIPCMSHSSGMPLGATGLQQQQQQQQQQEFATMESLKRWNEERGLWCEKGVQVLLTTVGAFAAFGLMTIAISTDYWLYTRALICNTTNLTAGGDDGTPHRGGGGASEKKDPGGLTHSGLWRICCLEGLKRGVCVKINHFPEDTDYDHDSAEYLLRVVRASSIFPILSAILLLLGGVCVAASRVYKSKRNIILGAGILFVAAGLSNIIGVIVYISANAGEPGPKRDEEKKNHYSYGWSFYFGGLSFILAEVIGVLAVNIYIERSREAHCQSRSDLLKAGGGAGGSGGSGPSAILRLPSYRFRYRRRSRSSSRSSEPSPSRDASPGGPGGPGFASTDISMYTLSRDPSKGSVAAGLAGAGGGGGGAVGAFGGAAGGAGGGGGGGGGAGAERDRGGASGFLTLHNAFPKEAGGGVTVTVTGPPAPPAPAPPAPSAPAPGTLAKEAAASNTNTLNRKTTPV
(In general: A change in cytosolic calcium serves as a functional read-out for many receptors and channels.)
Turning to `Cc1nc2ccc(C(F)(F)F)c(-c3cc(Cl)c4c(c3)CC(=O)N4)n2n1` [Example 23, 7-Chloro-5-(2-methyl-6-(trifluoromethyl)-[1,2,4]triazolo[1,5-a]pyridin-5-yl)indolin-2-one], the IC50 is 10 nM. For `O=C1Cc2cc(-c3c(C(F)F)ccc4nc(C(F)(F)F)nn34)cc(Cl)c2N1` [Example 18, 7-Chloro-5-(6-(difluoromethyl)-2-(trifluoromethyl)-[1,2,4]triazolo[1,5-a]pyridin-5-yl)indolin-2-one] the value was 0.251 nM. For `Cc1cc(-c2c(C(F)F)cc(C)c3nc(C(F)(F)F)nn23)cc2cn[nH]c12` [Example 111, 6-(Difluoromethyl)-8-methyl-5-(7-methyl-1H-indazol-5-yl)-2-(trifluoromethyl)-[1,2,4]triazolo[1,5-a]pyridine] the value was 0.794 nM.

The values above are taken from patent US10087185B2 (Janssen Pharmaceutica NV, priority 2016, dated 2018).
